These results are taken from US20020107193A1, “Therapeutic uses for IP3 receptor-mediated calcium channel modulators” (priority 2000, published 2002).

The subject of one experiment is CREB. The experiment is described as follows: EMSA of CREB binding activity in cultured primary cortical neurons. The class given is cell-based, rat. As for the experimental part:
Cerebral cortices were removed from embryonic day 18 Sprague-Dawley rats (Harlan, Indianapolis, Ind.). Cells were dissociated as described previously (Mattson et al., 1995, J. Neurochem. 65:1740-1751.) and were seeded into polyethyleneimine-coated 60 mm culture dishes containing Eagle's Minimum Essential Medium supplemented with 26 mM NaHCO3, 40 mM glucose, 20 mM KCl, 1 mM sodium pyruvate, 10% (v/v) heat-inactivated fetal bovine serum (Sigma, St. Louis, Mo.), and 0.001% gentamycin sulfate. After a 3-5 h incubation period to allow for cell attachment, the medium was replaced with 2 ml of Neurobasal Medium with B27 supplements (GIBCO Life Technologies, Grand Island, N.Y.). Previous observations have shown that greater than 80% of the cells that attach in the first few hours after plating will survive longer than 7 days in Neurobasal Medium with no additional neurotrophic factors. Experimental treatments were performed on 7-to-9-day-old neuronal cultures in which there were approximately 5% contaminating glial cells.
Total cell extracts were prepared as described (Baeuerle and Baltimore, 1988, Cell 53:211-217). Briefly, cells were harvested, washed twice with ice-cold PBS and lysed for 30 min at 4° C. in Totex buffer (20 mM HEPES, pH 7.9, 350 mM NaC1, 20% glycerol, 1% NP-40, 1 mM MgC12, 0.5 mM EDTA, 0.1 mM EGTA, 5 mM DTT, 0.1% PMSF, 1% aprotinin, 4 μg/ml leupeptin). Samples were centrifuged at 14,000× g for 10 min and aliquots of supernatant were collected and stored at −70° C. until taken for assay. The protein content of the extract (supernatant) was measured by Bradford method (BIO-RAD Laboratories, Ercules, Calif., USA). […]
After 20 min at room temperature, reaction products were separated on a 7% non-denaturing polyacrylamide gel. […] Radioactivity of dried gels was detected by exposure to Kodak X-Omat film and images on the developed film were scanned into a computer using a UMAX 1200s scanner. […]
The possible involvement of endoplasmic reticulum pools of intracellular calcium regulated by IP3 receptors in controlling basal levels of NF-κB was investigated using Xestospongin C (XeC) a specific membrane permeable modulator of IP3-mediated Ca^2+release (Gafni et al., 1997, Neuron 19:723-733; Hu et al., 1999, J. Biol. Chem. 274:33995-33998), and thapsigargin (Tg), a specific inhibitor of ER calcium/ATPase (Thastrup et al., 1990, Proc. Natl. Acad. Sci. USA 87:2466-2470; Davidson and Varhol, 1995, J. Biol. Chem. 270:11731-11734.). Cultured primary cortical neurons were treated with either 1 μM XeC, 100 nM Tg or vehicle for 6 h and protein extracts were analyzed for NF-κB binding activity by EMSA electrophoresis.

Experiment [1] has as its system macrophage-tropic CCR5-utilizing HIV CSF. The experiment in a line: p24 antigen in media of HIV-infected peripheral blood lymphocytes. Conditions: for p24 levels, of controls: day 2. The class given is cell-based. How it is done: Peripheral blood lymphocytes, previously stimulated for 72 hours with PHA, were divided into 3 groups, designated T-HIV (RPMI-10 media containing 1 μM XeC and 0.1% DMSO), N-HIV (RPMI-10 media containing 0.1% DMSO) and HIV (RPMI-10 media). […] The cells were then infected with a macrophage-tropic CCR5-utilizing HIV CSF for 3 hours at 37° and then washed to remove excess virus. All groups were cultured in RPMI-10% FCS+10U/ml IL-2. Referring to FIGS. 7-11, cells were incubated at 37° C. in 5% CO2. At stated time points shown in the aforementioned figures, spent media was removed and replace with fresh media. The media was tested for the presence of p24 antigen as a surrogate for HIV infection and replication. […] The significance of using the CCR5 utilizing macrophage-tropic virus JR-CSF is that this is the type of virus generally transmitted sexually.

The test system of another experiment is immune cell line. The experiment is described as follows: Proinflammatory cytokine production in an immune cell line. It is filed as cell-based.

Turning to `C1CCC[C@H]2CCCN3CC[C@@H](CCCCCC[C@@H]4CCCN5CC[C@@H](CC1)O[C@@H]45)O[C@@H]23` [XeC, Xestospongin C], in the experiment on CREB (cortical neurons, XeC 30 min pretreatment, 100 ng/ml TNFα 6 h, FIG. 2a), the “binding activity of CREB, agent alone” value is “neither TNFα nor XeC alone affected the binding activity of CREB”. Also, the CREB binding activity result in the experiment with CREB (cultured primary cortical neurons, 6 h, 1 μM XeC or 100 nM Tg, data not shown) is reported as “slightly augmented CREB binding activity; however, this was not statistically significant”. Also, the “p24 antigen as surrogate for HIV infection and replication, relative to DMSO” value in experiment [1] (1 μM XeC, 0.1% DMSO, overall statement) was “inhibition”. Also, the “p24 levels, of controls” value in experiment [1] (X1: XeC once 2 hours pre-infection, FIG. 7) is ~50%; in experiment [1] (X2: XeC 2 hours pre-infection and 6 hours post-infection, FIG. 7), “approximately 80%”. The p24 levels entry in experiment [1] (X1: XeC once 2 hours pre-infection, day 3, FIG. 7) is “increased to approximately control levels”; in experiment [1] (X1: XeC once pre-infection, day 3, third experiment, FIG. 10), “reduced relative to D1 and D2”; in experiment [1] (X1: XeC once pre-infection, day 4, third experiment, FIG. 10), “increased to near control levels”; in experiment [1] (X1: XeC once pre-infection, subsequent experiment, FIG. 8), “no effect was seen”; in experiment [1] (X2: XeC pre- and post-infection, day 3, FIG. 7), “increased to approximately control levels”; in experiment [1] (X2: XeC pre- and post-infection, day 3, third experiment, FIG. 10), “reduced relative to D1 and D2”. Further, the p24 levels entry in experiment [1] (X2: XeC pre- and post-infection, day 4, FIG. 9) is “increase to near wild-type levels”; in experiment [1] (X2: XeC pre- and post-infection, days 2 and 3, subsequent experiment, FIG. 8) it was “greatly reduced”. In addition, in experiment [1] (X2: XeC pre- and post-infection, day 4, third experiment, FIG. 10), the “p24 levels, of the DMSO controls” value was “approximately 50%”. Besides, the proinflammatory cytokine production result with immune cell line is on record as “inhibited”.
